Experiment [1] has as its target T1, Human sputum myeloperoxidase (HSMPO) (Homo sapiens, UniProt P05164).
T1 construct: mature light and heavy chains from one precursor
T1 sequence (P05164 165-745): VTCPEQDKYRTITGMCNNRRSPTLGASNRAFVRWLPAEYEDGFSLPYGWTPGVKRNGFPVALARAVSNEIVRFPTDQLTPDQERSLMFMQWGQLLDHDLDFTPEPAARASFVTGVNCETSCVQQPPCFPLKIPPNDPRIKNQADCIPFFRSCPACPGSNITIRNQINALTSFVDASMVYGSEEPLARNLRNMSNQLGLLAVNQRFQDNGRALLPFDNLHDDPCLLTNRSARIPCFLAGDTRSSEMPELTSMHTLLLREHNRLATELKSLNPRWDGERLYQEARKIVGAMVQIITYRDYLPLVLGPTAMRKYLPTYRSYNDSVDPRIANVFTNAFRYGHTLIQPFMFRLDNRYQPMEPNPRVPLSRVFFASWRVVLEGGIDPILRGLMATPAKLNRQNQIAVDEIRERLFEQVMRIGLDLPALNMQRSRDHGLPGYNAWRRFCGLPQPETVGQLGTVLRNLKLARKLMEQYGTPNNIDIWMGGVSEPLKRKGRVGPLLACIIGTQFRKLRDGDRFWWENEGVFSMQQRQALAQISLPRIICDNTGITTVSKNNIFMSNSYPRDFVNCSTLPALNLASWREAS
Description: Spectrophotometric (460 nm) assay of MPO-catalyzed oxidation of o-DA. Type of experiment: biochemical. The protocol: N-ethylmaleimide (NEM), o-DA (3,3'-dimethoxybenzidine dihydrochloride), HTA-Br, LPS (lipopolysaccharide, E. coli 0111:B4), heparin, dexamethasone,histopaque 1083 and histopaque 1119 were obtained from Sigma Chemical Company, St. Louis, Mo. Dextran-100 was a product of Crescent Chemical Company, Hauppauge, N.Y. Hydrogen peroxide (30%) was obtained from J. T. Baker and stored at 4° C. All other chemicals used were of the highest purity available. Human sputum myeloperoxidase (HSMPO) was obtained from Elastin Products Co., Pacific, Mo. The enzyme (2.4 mg solid) was dissolved in 2.4 mL of 50 mM potassium phosphate buffer (pH 6.0), and stored in 0.1 mL aliquots at -20° C., then diluted 10-fold with 50 mM potassium phosphate buffer (pH 6.0) to provide a HSMPO concentration of 0.1 mg/mL.
To evaluate potential assay interference by ASC, conditions were selected which permitted the spectrophotometric assessment of ASC effects on the extent of o-DA oxidation. This was accomplished using sub-saturating concentrations of H2 O2 (37 mM), 1.5 mM o-DA a nd excess enzyme. MPO activity was assayed at room temperature in a final volume of 3.0 mL containing 50 mM potassium phosphate buffer (pH 6.0), 37 mM H2 O2, and 1.5 mM o-DA. Reactions were initiated by addition of 2 mg HSMPO: (a) control reaction, (b) ASC (3.2 mM) added 3.6 minutes after initiation of the reaction, (c) ASC (32 mM) added just prior to the initiation of the reaction and (d) ASC (64 mM) added just prior to the initiation of the reaction.
The effect of GSH on o-DA oxidation by HSMPO was assessed in an analogous fashion. MPO activity was assayed at room temperature in 3.0 mL of 50 mM potassium phosphate (pH 6.0), supplemented with 37 mM H2 O2, and 1.5 mM o-DA. (a) HSMPO (2 mg) was added 2 minutes after addition of NEM (6.6 mM) and GSH (1.65 mM), (b) NEM (6.6 mM) was added 5 minutes prior to addition of HSMPO (2 mg) (c) GSH (3.3 mM) was added 3.5 minutes after initiation of the reaction by addition of HSMPO (2 mg), (d) GSH (0.33 mM) was added just prior to initiation of the reaction with HSMPO (2 mg) with NEM (6.6 mM) added 20 seconds following initiation of the reaction, (e) GSH (0.33 mM) was added just prior to initiation of the reaction with HSMPO (2 mg) with NEM (6.6 mM) added 1.0 minute following initiation of the reaction, and (f) GSH (1.65 mM) was added just prior to initiation of the reaction.

Experiment [2] has as its system PMN infiltrates within the different compartments of the eye. Description: Histopathologic evaluation of PMN infiltrates in eye sections. Type of experiment: in vivo, Lewis rat. Conditions: topical dexamethasone-treated animals. The procedure:
Inhibition of PMN influx into ocular tissue of the Lewis rat by dexamethasone was evaluated as follows. Dexamethasone suspensions were prepared in a carbopol ophthalmic suspension vehicle at concentrations of 0.0033%, 0.01%, 0.033%, 0.04% and 0.10%, w/v. A 5 μL aliquot of test drug or vehicle was applied topically to each eye of the experimental animals 24, 20, and 4 hours prior to, at the time of, and 4 and 20 hours after LPS foot pad injection. Twenty-four (24) hours following LPS administration, eyes were enucleated, quickly frozen on dry ice and stored at -70° C. until used for tissue extraction and assessment of MPO activity. Alternatively, eyes were enucleated and fixed in a solution of phosphate buffered (40 mM) formalin (4%), pH 6.0. Eyes were embedded in paraffin and sectioned. Using light microscopy, hematoxylin- and eosin-stained sections were examined for the presence and distribution of PMN infiltrates within the different compartments of the eye. Infiltrates were ranked subjectively on a scale ranging from 0 to 5, where 0=not remarkable, 1=minimal, 2=slight/mild, 3=moderate, 4=moderately severe, and 5=severe/high.

“Also recorded” adds a separate entry of the source.

Consider `CCN1C(=O)C=CC1=O` [NEM, N-ethylmaleimide], for which the “inhibitory effect of GSH” value in experiment [1] (NEM 6.6 mM added together with GSH 1.65 mM 2 minutes prior to addition of enzyme) is “fully abolished”. Also, the “effect on MPO activity” value in experiment [1] (NEM alone (6.6 mM), absence of GSH) is “does not affect MPO catalysis; also recorded: little effect on MPO activity”.
Regarding `C[C@@H]1C[C@H]2[C@@H]3CCC4=CC(=O)C=C[C@]4(C)[C@@]3(F)[C@@H](O)C[C@]2(C)[C@@]1(O)C(=O)CO` [dexamethasone], in experiment [2], the “PMNs in anterior and posterior compartments and associated ocular tissue (histopathology)” value is “dose dependent decline in PMNs”.
Consider `N[C@@H](CCC(=O)N[C@@H](CS)C(=O)NCC(=O)O)C(=O)O` [GSH, glutathione], for which the “increase in 460 nm absorbancy” value in experiment [1] (GSH 1.65 mM present at the initiation of the MPO reaction) is listed as “fully prevented”. Also, the change in absorbancy result in experiment [1] (GSH 3.3 mM added to control peroxidase reactions that had ceased) was “little change in absorbancy”.
On to `O=C1O[C@H]([C@@H](O)CO)C(O)=C1O` [ASC, ascorbic acid], for which the “effect on the 460 nm absorbance attained” value in experiment [1] (ASC 3.2 mM added to control reaction when enzyme catalysis had ceased) was “little effect”. The “development of absorbance at 460 nm” value in experiment [1] (ASC 64 mM added just prior to initiation) was “fully abolished”. Besides, the “interference in the spectrophotometric assay of MPO, ASC compared with GSH” value in experiment [1] (concentration dependent) was “more effective than GSH”.
